# Data published in ChEMBL document CHEMBL3430912, “GSK Tres Cantos Anti-Kinetoplastid Screening (TCAKS) Data”.
# pIC50: −log10 of the molar value.
# Columns and labels:
# Trypanosoma cruzi [1] = assay: GSK_TCAKS: pIC50 Trypanosoma cruzi viability assay using beta-GAL activity. This assay was run at single shot at 5uM compound concentration per well. The biological reagents consisted of NIH-3T3 host cells and trypomastigotes parasitic cells; both cell types were set to a 3.3 * 10^5 cells/mL dilution in assay DMEM by means of a CASY cell counter device using a 60um capillary. 6 uL of the mixture were dispensed per well (about 1 * 10^3 host-cells and 1 * 10^3 parasites) with a Multidrop Combi dispenser. […] In all wells, the percentage of DMSO never exceeded 0.5%. Plates incubated for four days at 37C, 5% CO2. The substrate used for the assay fluorescence intensity (FLINT) readout was resorufin-beta-D-galactopiranoside (Sigma-Aldrich) at 5uM per well. It was diluted in PBS supplemented with the soft detergent Igepal (Fluka).; type: functional, organism-based, Mus musculus; conditions: Tulahuen, NIH3T3
# Trypanosoma cruzi [2] = assay: (§1) GSK_TCAKS: pIC50 Trypanosoma cruzi Imaging: Infected Cells. […] Cells were then washed once with PBS before infection. T. cruzi trypomastigotes, collected at days 5 to 8 after infection from LLC-MK2 parasite infected cultures, were allowed to swim out for 4h at 37C from a centrifuged pellet (2,500 rpm/10 min/room temperature). Trypomastigotes were then collected and counted in a CASY Cell Counter. Trypomastigotes, in supplemented DMEM, were added to H9c2 cultures in a multiplicity of infection of 1 and incubated for 18 h. Cells were washed once with PBS before incubation of the infected H9c2 monolayer with trypsin (Life-Technologies) to detach cells from the flask. Cells were counted in a CASY Cell Counter using a 150 um capillary and their density set at 5 * 10^4 cells per mL in supplemented assay DMEM. Infected H9c2 were dispensed into 384-well poly-lysine coated assay plates at 50uL per well using a Multidrop Combi dispenser. After seeding them, the plates were incubated at 37C, 5% CO2 for 72h. Cultures were then fixed and stained by addition of 50 uL of a solution containing 8% formaldehyde and 4 uM DRAQ5 DNA dye (BioStatus, UK) per well. […] Five images were collected per well for reliable statistical analysis. Automated image analysis was performed with a script developed on Acapella High Content Imaging and Analysis Software (PerkinElmer). Output: percentage of infected cells per well as a second infection marker.; type: functional, organism-based, Rattus norvegicus; conditions: H9c2, 4 h
# Trypanosoma cruzi [3] = assay: GSK_TCAKS: pIC50 Trypanosoma cruzi Imaging: Amastigotes/Cell. […] Cells were then washed once with PBS before infection. T. cruzi trypomastigotes, collected at days 5 to 8 after infection from LLC-MK2 parasite infected cultures, were allowed to swim out for 4h at 37C from a centrifuged pellet (2,500 rpm/10 min/room temperature). Trypomastigotes were then collected and counted in a CASY Cell Counter. Trypomastigotes, in supplemented DMEM, were added to H9c2 cultures in a multiplicity of infection of 1 and incubated for 18 h. Cells were washed once with PBS before incubation of the infected H9c2 monolayer with trypsin (Life-Technologies) to detach cells from the flask. Cells were counted in a CASY Cell Counter using a 150 um capillary and their density set at 5 * 10^4 cells per mL in supplemented assay DMEM. Infected H9c2 were dispensed into 384-well poly-lysine coated assay plates at 50uL per well using a Multidrop Combi dispenser. After seeding them, the plates were incubated at 37C, 5% CO2 for 72h. Cultures were then fixed and stained by addition of 50 uL of a solution containing 8% formaldehyde and 4 uM DRAQ5 DNA dye (BioStatus, UK) per well. […] Five images were collected per well for reliable statistical analysis. Automated image analysis was performed with a script developed on Acapella High Content Imaging and Analysis Software (PerkinElmer). Output: number of amastigotes per cell as infection level measurement.; type: functional, organism-based, Rattus norvegicus; conditions: H9c2, 4 h
# Trypanosoma cruzi [4] = assay: as §1, with “H2C9” for “Trypanosoma cruzi”, “H9c2 Host Cardiomyocytes.” for “Infected Cells.”, “Number” for “percentage”, “H9c2 Host Cardiomyocytes nuclei to determine drug-related cytotoxicity.” for “infected cells per well as a second infection marker.”; type: functional, organism-based, Rattus norvegicus; conditions: H9c2, 4 h
# Leishmania donovani [5] = assay: GSK_TCAKS: pIC50 Leishmania donovani viability assay using fluorescence intensity. Assay plates (1536-well) were prepared by adding 30nL per well of compound. For single shot assay, the final compound concentration was 5uM. […] Briefly, eGFP LdBOB axenic amastigotes were harvested, fixed and counted in a CASY cell counter (Roche-Applied Science). A final concentration of 1.5 * 10^5 cells per well were prepared in amastigote media containing 500 U/mL penicillin/streptomycin (Invitrogen) and 6uL was dispensed to each experimental well using a Multidrop Combi dispenser (Thermo Scientific). 6uL of assay media was dispensed to control columns used as reference for 100% compound response. Following incubation for 72 h at 37C, 5% CO2, 2 uL of resazurin was added to each well at a final concentration of 0.5 mM in phosphate buffered saline (PBS) with IGEPAL (Sigma-Aldrich), 0.05% (v/v).; type: functional, organism-based
# Leishmania donovani [6] = assay: (§2) GSK_TCAKS: pIC50 Leishmania donovani Imaging: Infected Macrophages. Assay plates (384-well) were prepared by adding 250nL of compound to each well. For single shot assay, the final compound concentration was 5 uM. […] Automated image analysis was performed with a script developed on Acapella High Content Imaging and Analysis Software (PerkinElmer). Output: Percent of infected macrophage cells were reported for each well.; type: functional, organism-based, Homo sapiens; conditions: THP-1
# Leishmania donovani [7] = assay: as §2, with “Amastigotes/Macrophages.” for “Infected Macrophages.”, “Average number” for “Percent”, “amastigotes per” for “infected”, “cell” for “cells”; type: functional, organism-based, Homo sapiens; conditions: THP-1
# Leishmania donovani [8] = assay: as §2, with “THP-1 Host” for “Infected”, “THP-1 cell count” for “Percent of infected macrophage cells”; type: functional, organism-based, Homo sapiens
# [9] = test system: Trypanosoma brucei brucei; assay: GSK_TCAKS: pIC50 Trypanosoma brucei viability assay using fluorescence intensity. Assay plates (1536-well) were prepared by dispensing 25nL of compound solution per well using an Echo acoustic dispenser (Labcyte).; type: functional, organism-based; conditions: Lister 427, 2 h
# [10] = test system: Trypanosoma brucei brucei; assay: GSK_TCAKS: pIC50 Trypanosoma brucei viability assay using luminiscence. Assay plates (1536-well) were prepared. T. brucei cultures were harvested and counted in a CASY cell counter. A parasite suspension was prepared at a final concentration of 5 * 10^4 cells/mL in complete HMI9 medium and 6uL was dispensed to all wells containing compounds using a Multidrop Combi dispenser. 6uL of HMI9 media with 0.4% DMSO were dispensed to control columns. Plates were incubated for 24 h at 37C, 5% CO2 then tempered for 10 min at room temperature. ATP content was quantified by adding 4 uL of CellTiter-Glo Reagent (Promega) according to the manufacturer's instructions. Luminescence was measured using a ViewLux.; type: functional, organism-based; conditions: Lister 427, CASY
# [11] = GSK_TCAKS: pIC50 HepG2 human cell line viability assay using luminiscence. […] Seeding density was checked to ensure that new mono-layers were not more than 50% confluent at the time of harvesting. Cell suspension was added to 500 mL of the same medium at a final density of 1.2 * 10^5 cells/mL. This cell suspension was dispensed (25 uL, 3000 cells per well) into 384-well clear-bottom plates using a Multidrop Combi dispenser. Prior to addition of the cell suspension, the screening compounds (250 nL) were pre-dispensed into the plates with an Echo liquid handler. Plates were incubated for 48 h at 37C, 5% CO2. After incubation, plates equilibrated at room temperature for 30 min before proceeding to develop the luminescent signal. The signal developer, CellTiter-Glo Reagent, was allowed to equilibrate at room temperature for 30 min and added to the plates (25uL per well) using a Multidrop Combi dispenser. Plates were left for 10 min at room temperature for stabilization and then read using a ViewLux.; type: toxicity, cell-based
# [12] = biological target: Sterol 14-alpha demethylase (Trypanosoma cruzi (strain CL Brener), UniProt Q7Z1V1); assay: GSK_TCAKS: pIC50 CYP51 from Trypanosoma cruzi.; type: functional
# Sterol 14-alpha demethylase, sequence (Q7Z1V1 whole entry): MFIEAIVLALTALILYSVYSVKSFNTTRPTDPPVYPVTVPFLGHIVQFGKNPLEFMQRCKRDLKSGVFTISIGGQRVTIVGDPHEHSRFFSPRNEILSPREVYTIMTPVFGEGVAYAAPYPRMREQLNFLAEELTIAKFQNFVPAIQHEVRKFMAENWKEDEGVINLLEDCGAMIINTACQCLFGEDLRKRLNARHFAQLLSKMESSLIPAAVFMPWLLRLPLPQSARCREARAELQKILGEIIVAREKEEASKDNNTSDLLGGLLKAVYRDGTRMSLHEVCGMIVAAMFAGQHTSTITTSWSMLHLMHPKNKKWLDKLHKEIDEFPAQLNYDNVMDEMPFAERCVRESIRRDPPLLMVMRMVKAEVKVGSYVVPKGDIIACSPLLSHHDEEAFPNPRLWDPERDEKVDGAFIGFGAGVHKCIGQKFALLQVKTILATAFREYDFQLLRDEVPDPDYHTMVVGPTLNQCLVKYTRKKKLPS
SMILES,pIC50 (Trypanosoma cruzi [1]),pIC50 (Trypanosoma cruzi [2]),pIC50 (Trypanosoma cruzi [3]),pIC50 (Trypanosoma cruzi [4]),pIC50 (Leishmania donovani [5]),pIC50 (Leishmania donovani [6]),pIC50 (Leishmania donovani [7]),pIC50 (Leishmania donovani [8]),pIC50 [9],pIC50 [10],IC50 at 48 h [11] [µM],pIC50 [12]
COc1ccc(C2=NCC(CSc3nnc(-c4ccc5c(c4)OCO5)o3)S2)cc1 (stereo unspecified),5.60,6.30,6.50,< 4.30,6.00,6.00,6.40,< 4.30,5.00,< 4.40,> 100,5.00
CCc1cccc(CC)c1-n1c(SCC(=O)NC(=O)NCc2ccco2)nnc1-c1cccnc1,4.90,4.90,5.10,< 4.30,< 4.30,< 4.30,< 4.30,< 4.30,6.40,6.10,> 100,6.00
C[C@@H](Oc1cc(-n2cnc3ccc(CC(O)CO)cc32)sc1C(N)=O)c1ccccc1Cl (stereo partly specified),5.50,4.30,4.90,6.90,4.60,4.40,4.50,4.40,6.20,6.10,> 100,4.60
O=C(c1ccccc1)N1CCC(C(=O)N2CCC(Oc3ccccc3Cl)CC2)CC1,5.70,4.50,4.60,< 4.30,< 4.30,< 4.30,4.50,< 4.30,6.30,6.00,> 100,4.70
CCCc1cc(N)nc(-c2cc(CCC)cc(N)n2)c1,5.70,6.20,6.30,6.70,4.70,5.60,5.80,4.70,5.50,5.10,31.6,< 4.00
CCOc1cc(NCCCN2CCN(C)CC2)c2ncccc2c1,5.75,5.90,6.00,4.50,4.40,5.90,6.10,5.20,4.90,4.70,31.6,< 4.00
Cc1cc(-c2cccc3ccccc23)nc2nc(N)nc(N)c12,4.40,< 4.30,4.50,< 4.30,5.70,5.30,6.00,4.30,4.50,4.70,50.1,< 4.00
N#Cc1ccc(Br)cc1[N+](=O)[O-],6.60,6.10,7.20,4.40,5.10,4.70,4.90,4.60,6.80,6.70,20,4.30
COc1ccc([N+](=O)[O-])cc1NC(=O)c1cc(Cl)ccc1O,4.50,4.80,5.10,< 4.30,5.10,5.70,5.80,5.00,4.60,4.60,10,< 4.00
O=C(Nc1ccccc1C(=O)Nc1ccccn1)c1ccco1,< 4.30,< 4.30,< 4.30,< 4.30,< 4.30,< 4.30,< 4.30,< 4.30,6.60,6.30,> 100,< 4.00
COc1cccc(Nc2cc(C)nc(-c3ccccn3)n2)c1,5.50,4.90,5.10,5.30,5.40,5.70,5.90,< 4.30,< 4.40,< 4.40,50.1,< 4.00
CCCCn1c(=O)c2c(N)onc2n(CCCC)c1=O,4.60,4.50,4.60,4.60,< 4.30,< 4.30,4.50,< 4.30,6.20,6.30,50.1,4.10
Nc1nccc(-c2csc(Nc3ccc(Cl)cc3)n2)n1,5.90,< 4.30,< 4.30,5.70,5.40,6.00,6.00,< 4.30,< 4.40,< 4.40,> 100,5.90
NS(=O)(=O)c1ccc(Nc2nccc(-c3cnn4ncccc34)n2)cc1,5.60,4.80,6.10,6.50,6.10,5.70,6.00,6.60,7.10,6.80,> 100,< 4.00
CC(=O)Nc1ccc(Nc2nccc(-c3cnn4ncccc34)n2)cc1C(F)(F)F,7.30,6.30,6.70,7.20,6.70,7.60,7.80,8.00,7.50,7.30,> 100,4.50
O=C1OCc2ccc(Nc3nccc(-c4cnn5ncccc45)n3)cc21,7.60,7.20,7.50,7.60,7.20,7.80,7.90,8.10,8.40,7.70,> 100,< 4.00
Fc1ccc(Nc2nc(-c3ccccn3)cs2)cc1,5.60,5.30,5.30,6.00,4.70,5.00,5.20,< 4.30,4.60,4.60,> 100,4.80
Oc1c(-c2nnc(CCc3ccccc3)[nH]2)ncc2cccnc12,6.70,6.70,6.70,4.80,6.50,5.40,5.50,4.70,6.10,5.80,39.8,< 4.00
